Target: T1, human recombinant Yes [a.a. 2–543 (end)] (Homo sapiens, UniProt P07947)
T1 construct: human recombinant Yes [a.a; 2–543 (end)]; purchased BPS Bioscience 40488
Experiment: ADP-Glo kinase assay, inhibition rates of Yes phosphorylation activity (first and second screening)
Type: biochemical
Conditions: 10 μmol L−1 compound; for First screening IR (inhibition rate): mean of n = 4 wells
In short: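 ADP-Glo luminescence measured inhibition of human recombinant Yes (a.a. 2–543) phosphorylation activity. In the first screen, each compound ran in 4 wells and inhibition rates were averaged. The second screen retested hits as compounds dissolved from fresh powder.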

T1 sequence (P07947 2-543): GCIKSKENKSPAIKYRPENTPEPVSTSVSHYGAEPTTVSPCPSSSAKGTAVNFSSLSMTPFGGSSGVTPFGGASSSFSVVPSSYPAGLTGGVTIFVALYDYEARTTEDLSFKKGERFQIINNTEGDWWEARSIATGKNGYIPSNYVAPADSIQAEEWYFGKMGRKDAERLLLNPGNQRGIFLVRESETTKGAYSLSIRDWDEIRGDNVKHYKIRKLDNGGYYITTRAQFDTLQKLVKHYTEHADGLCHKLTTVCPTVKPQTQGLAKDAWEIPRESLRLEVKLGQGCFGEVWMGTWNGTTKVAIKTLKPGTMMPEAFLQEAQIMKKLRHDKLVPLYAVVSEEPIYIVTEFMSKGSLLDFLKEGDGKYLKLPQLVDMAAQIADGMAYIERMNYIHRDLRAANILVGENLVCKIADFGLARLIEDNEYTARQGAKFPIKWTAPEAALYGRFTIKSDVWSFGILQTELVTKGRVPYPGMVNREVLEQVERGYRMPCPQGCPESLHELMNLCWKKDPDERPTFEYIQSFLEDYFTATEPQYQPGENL

## COc1ccc(-c2cc(C(=O)OCc3ccccn3)c3ccccc3n2)cc1OC [Compound Z30610492]
  First screening IR (inhibition rate): -9%

## N#Cc1ccccc1S(=O)(=O)N1CCN(C(=O)/C=C/c2ccc3c(c2)OCCCO3)CC1 [Compound Z27234574]
  First screening IR (inhibition rate): 36%

## Cc1ccc(-n2c(SCC(=O)c3cc(C)n(CC4CCCO4)c3C)nnc2N2CCOCC2)cc1 (stereo not shown) [Compound Z98369603]
  First screening IR (inhibition rate): 22%

## Cc1noc(C)c1COc1cccc(C(=O)N2CCN(Cc3cc(=O)n4ccsc4n3)CC2)c1 [Compound Z147054608]
  First screening IR (inhibition rate): 14%

## O=C(Nc1cccc2ncccc12)c1ccc(=O)n(-c2ccc(F)cc2)n1 [Compound Z370787214]
  First screening IR (inhibition rate): 43%

## O=C(Nc1ccc2nc(-c3ccco3)[nH]c2c1)c1ccc(Cl)nc1 [Compound Z757780044]
  First screening IR (inhibition rate): 51%

## CCOc1ccc(-n2cc(-c3ccccc3)c3c(NCCO)ncnc32)cc1 [Compound Z57456164]
  First screening IR (inhibition rate): 20%

## COc1cccc(-c2cc(-c3ccccc3)c3cc(Cl)ccc3n2)c1.Cl [Compound Z48950797]
  First screening IR (inhibition rate): 1%

## CC(CN(C)Cc1ccccc1)Nc1nc(N)c2ccccc2n1 (stereo not shown) [Compound Z1593120476]
  First screening IR (inhibition rate): -10%

## NC(=O)c1cc(NC(=O)c2cc(-c3ccccc3Cl)n[nH]2)ccc1F [Compound Z368298320]
  First screening IR (inhibition rate): -18%

## CC(C)(C)c1ccc(OCc2nnc(SCC(=O)N3CCC(c4ccccc4)=N3)n2N)cc1 [Compound Z24578166]
  First screening IR (inhibition rate): 40%

## CN1CCC(=O)Nc2cc(C(=O)N(C)C3CCCN(c4ccccc4)C3=O)ccc21 (stereo not shown) [Compound Z1315092412]
  First screening IR (inhibition rate): 16%

## NC(=S)c1cc(C(=O)c2ccccc2O)cn2c1nc1ccccc12 [Compound Z235467022]
  First screening IR (inhibition rate): 5%

## CC(C)n1ncc2c(C(=O)O)cc(-c3ccc4c(c3)OCCO4)nc21 [Compound Z56643642]
  First screening IR (inhibition rate): 2%

## CCc1c(C(=O)Nc2n[nH]c(-c3ccc(C)cc3)n2)cnn1-c1ccccc1 [Compound Z332932578]
  First screening IR (inhibition rate): 1%

## CC(C)n1ncc2c(C(=O)N3CCN(c4ccc(F)cc4)CC3)cc(-c3ccccc3)nc21 [Compound Z52005969]
  First screening IR (inhibition rate): 27%

## CC(NS(=O)(=O)c1ccc(C(C)(C)C)cc1)c1ccc(-n2ccnc2)cc1 (stereo not shown) [Compound Z45488256]
  First screening IR (inhibition rate): 12%

## COc1ccc(-c2cc(-c3cc4ccccc4o3)nc3c2cnn3C(C)C)cc1 [Compound Z94751514]
  First screening IR (inhibition rate): 3%

## CC(=O)c1c(C)[nH]c(C(=O)NCCCn2cnc3ccccc32)c1C [Compound Z102448822]
  First screening IR (inhibition rate): 20%

## O=C(CN1CCSc2ccccc21)N1CCN(S(=O)(=O)c2ccc(Cl)s2)CC1 [Compound Z105335628]
  First screening IR (inhibition rate): -5%

## COC(=O)c1cn(C)c(-c2ccc(NC(=O)c3ccc(CN4CCCCC4)cc3)cc2)c1C(=O)OC [Compound Z415024646]
  First screening IR (inhibition rate): -1%

## CCc1nn2c(Nc3ccc(C(N)=O)cc3)cc(C)nc2c1-c1ccc(F)cc1 [Compound Z1179617819]
  First screening IR (inhibition rate): 6%

## Cc1cc(C)c(C(=O)COc2ncnc3ccccc23)cc1C [Compound Z18537178]
  First screening IR (inhibition rate): 7%

## Fc1ccccc1-c1nc(SCc2cn3ccccc3n2)n[nH]1 [Compound Z17356722]
  First screening IR (inhibition rate): 0%

## COc1ccc(CN2CCC(CNC(=O)c3ccccc3SCc3c(C)noc3C)CC2)cc1 [Compound Z914096084]
  First screening IR (inhibition rate): -7%

## O=C(c1ccc(=O)[nH]c1)N1CCN(C(=O)c2cc3ccccc3o2)CC1 [Compound Z368093014]
  First screening IR (inhibition rate): 48%

## CCCN(S(=O)(=O)c1ccc(Cl)cc1)S(=O)(=O)c1ccc(C)cc1C [Compound Z45422032]
  First screening IR (inhibition rate): 5%

## O=C(Cc1csc(NC(=O)c2ccccc2F)n1)NCC1Cc2ccccc2O1 (stereo not shown) [Compound Z420283836]
  First screening IR (inhibition rate): -5%

## Cc1c(-c2ccc(O)cc2)nc2ccc(Cl)cc2c1-c1ccccc1.Cl [Compound Z48950829]
  First screening IR (inhibition rate): 33%
Second screening, dissolved from fresh powder, n = 4
  Second screening IR (inhibition rate): 14%

## O=C(Nc1cccc(C(F)(F)F)c1)c1cccc(NC(=O)c2cnccn2)c1 [Compound Z30576843]
  First screening IR (inhibition rate): 14%

## CNc1snc(C)c1C(=O)N1CCC(Oc2ccc(Cl)c(Cl)c2)C1 (stereo not shown) [Compound Z1417711005]
  First screening IR (inhibition rate): -7%

## O=C(NCc1ccncc1)c1cnn(-c2ccc(Cl)cc2)c1C(F)(F)F [Compound Z94739043]
  First screening IR (inhibition rate): 6%

## Cc1cccc(-n2c(SCC(=O)c3cc(C)n(CC4CCCO4)c3C)nnc2N2CCOCC2)c1 (stereo not shown) [Compound Z92479374]
  First screening IR (inhibition rate): 3%

## Cc1ccc(S(=O)(=O)N(C)C2CCS(=O)(=O)C2)cc1C (stereo not shown) [Compound Z89320796]
  First screening IR (inhibition rate): 2%

## NC(=O)c1ccc(CN(C2CC2)S(=O)(=O)c2cccc(Cl)c2)cc1 [Compound Z319895028]
  First screening IR (inhibition rate): -5%

## CC1OC(C)(C)N(C(=O)OC(C)(C)C)C1CNC(=O)c1c(F)cccc1Cl (stereo not shown) [Compound Z1229892973]
  First screening IR (inhibition rate): -2%

## Cc1cc(C(=O)Nc2ccc(F)c(F)c2)c2cnn(C(C)C)c2n1 [Compound Z203269322]
  First screening IR (inhibition rate): 39%

## CCN(CC)c1ccc([N+](=O)[O-])cc1C(=O)Nc1ccc2nc(N3CCOCC3)sc2c1 [Compound Z70970124]
  First screening IR (inhibition rate): 9%

## Cc1cc(C(=O)/C(C#N)=C2\C(=O)Nc3c(Cl)cc(Cl)cc32)c(C)n1-c1cccc(C(F)(F)F)c1 [Compound Z56789382]
  First screening IR (inhibition rate): -23%

## C(=C\c1nc2cc(-c3ccccc3)ccc2o1)/c1cccnc1 [Compound Z46080472]
  First screening IR (inhibition rate): 11%

## Clc1ccccc1/C=C1\CCCc2c1nc1ncnn1c2-c1ccccc1Cl [Compound Z56799005]
  First screening IR (inhibition rate): 6%

## Cc1cccc(OCC(=O)Nc2ccc(SC(=O)N(C)C)cc2)c1 [Compound Z1126778839]
  First screening IR (inhibition rate): -6%

## Cc1nn(-c2ccc(Br)cc2)c(C)c1C(=O)Nc1ncn[nH]1 [Compound Z727167436]
  First screening IR (inhibition rate): -2%

## Cc1ccccc1Nc1nc(N)nc(CSc2nnc(NCc3ccccc3)s2)n1 [Compound Z19326161]
  First screening IR (inhibition rate): 1%

## Cc1sc2ncnc(N/N=C/c3cccc(O)c3)c2c1C [Compound Z49890739]
  First screening IR (inhibition rate): 14%

## NCCN1C(=O)C2C3C=CC(C3)C2C1=O (stereo not shown) [Compound Z803067872]
  First screening IR (inhibition rate): 7%

## Cc1ccc(C)c(S(=O)(=O)CCN(C)Cc2nc3ccccc3c(=O)[nH]2)c1 [Compound Z46302631]
  First screening IR (inhibition rate): -9%

## Cc1sc2ncnc(Nc3ccc4c(c3)OCO4)c2c1C [Compound Z31191207]
  First screening IR (inhibition rate): 14%

## Cc1ccc(Cn2c(=O)c3c(nc4n(-c5ccc(S(N)(=O)=O)cc5)c(C)cn34)n(C)c2=O)cc1 [Compound Z244561242]
  First screening IR (inhibition rate): 9%

## FC(F)(F)c1ccnc(Nc2ccc(N3CCOCC3)nc2)n1 [Compound Z318998372]
  First screening IR (inhibition rate): -7%

## CC(Sc1ncc(CO)n1C)c1cn(-c2ccccc2)nn1 (stereo not shown) [Compound Z1419493384]
  First screening IR (inhibition rate): -8%
